Like-named read-outs stand apart in the source and are kept apart here. Starred links: 1 amine or outer side, 2 acyl side, 3 side chain; linkers in the order of their positions; H or OH if unused. Non-standard residues stand in square brackets, D forms with d. Residues, ends and D or L forms follow the SMILES beside them. ξ: configuration not given here. *: point of attachment. dBip = N[C@H](Cc1ccc(-c2ccccc2)cc1)C(=O)O; Oic = O=C(O)[C@@H]1C[C@@H]2CCCC[C@@H]2N1; Phe(4-Cl) = N[C@@H](Cc1ccc(Cl)cc1)C(=O)O; Phe(4-I) = N[C@@H](Cc1ccc(I)cc1)C(=O)O; γGlu = O=C(O)[C@H](CCC(=O)[*:2])N[*:1]; NMeR = CN[C@@H](CCCNC(=N)N)C(=O)O; Palmitoyl = CCCCCCCCCCCCCCCC(=O)*; Tridecanoyl = CCCCCCCCCCCCC(=O)*; hArg = N=C(N)NCCCC[C@H](N)C(=O)O; Cha = N[C@@H](CC1CCCCC1)C(=O)O; NMeL = CN[C@@H](CC(C)C)C(=O)O; αMeL = CC(C)C[C@](C)(N)C(=O)O; Aic = NC1(C(=O)O)Cc2ccccc2C1; αMeP = C[C@@]1(C(=O)O)CCCN1; β3hP = O=C(O)C[C@@H]1CCCN1; Pip = O=C(O)[C@@H]1CCCCN1; Nle = CCCC[C@H](N)C(=O)O; Orn = NCCC[C@H](N)C(=O)O; ξβ3hV = CC(C)C(N)CC(=O)O; Hexanoyl = CCCCCC(=O)*; AEEA = NCCOCCOCC(=O)O; Aib = CC(C)(N)C(=O)O; Inp = O=C(O)C1CCNCC1
Experiments:
rat APJ receptor = target: T1, rat APJ receptor (Rattus norvegicus, UniProt Q9JHG3); test: [35S] GTPγS assay, rat APJ receptor; type: biochemical
T1 construct: expressed in transfected cells
T1 sequence (Q9JHG3 1-377): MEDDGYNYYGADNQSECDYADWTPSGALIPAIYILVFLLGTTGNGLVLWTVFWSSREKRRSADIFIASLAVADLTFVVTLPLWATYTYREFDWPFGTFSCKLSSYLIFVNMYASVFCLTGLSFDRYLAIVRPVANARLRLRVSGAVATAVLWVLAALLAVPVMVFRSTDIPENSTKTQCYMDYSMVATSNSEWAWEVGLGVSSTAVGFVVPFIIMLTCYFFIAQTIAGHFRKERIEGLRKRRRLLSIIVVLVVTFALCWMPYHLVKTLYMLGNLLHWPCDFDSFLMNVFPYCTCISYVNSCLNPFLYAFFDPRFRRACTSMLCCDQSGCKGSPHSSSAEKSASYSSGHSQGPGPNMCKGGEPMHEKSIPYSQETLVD
Experimental: The membranes were incubated with modified peptides in the assay buffer. […] Bound [^35S] GTPγS was separated from free radiolabel by filtration. The filter bound radioactivity was determined by liquid scintillation counting.

[1] = In vitro stability in rat plasma; type: in vitro ADME
How it was run: (§1)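 Stability was followed for 4 hr at 37° C. after spiking peptides (5 μM final) into rat plasma and tissue homogenates. Methanol quench with internal standard preceded high resolution LC-MS.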

[2] = In vitro stability in rat liver homogenate; type: in vitro ADME; conditions: tissue homogenate
How it was run: as §1

[3] = In vitro stability in rat kidney homogenate; type: in vitro ADME; conditions: rat, tissue homogenate
How it was run: as §1

[4] = rat APJ receptor, read-out: EC50 Rat APJ Receptor
[5] = Table 16, read-out: EC50 Rat APJ Receptor

Compound | EC50 (rat APJ receptor; [4]) | remaining at 4 h, 5 μM [1] | remaining at 4 h, 5 μM [2] | remaining at 4 h, 5 μM [3] | EC50 (rat APJ receptor; [5])
CC(=O)N[C@@H](CCCCNC(=N)N)C(=O)N[C@H](CCCNC(=N)N)C(=O)N[C@@H](CCC(N)=O)C(=O)N[C@@H](CCCCNC(=N)N)C(=O)N1CCC[C@H]1C(=O)N[C@@H](CCC(=O)O)C(=O)N(C)[C@@H](CC(C)C)C(=O)N[C@@H](CO)C(=O)N[C@@H](Cc1c[nH]cn1)C(=O)N[C@@H](CCCCN)C(=O)NCC(=O)N1[C@H](C(=O)N[C@@H](Cc2ccc(I)cc2)C(=O)N2CCC[C@H]2C(=O)N[C@H](Cc2ccc(-c3ccccc3)cc2)C(=O)O)C[C@@H]2CCCC[C@@H]21 [compound 79] (Ac-[hArg][dR]Q[hArg]PE[NMeL]SHKG[Oic][Phe(4-I)]P[dBip]-OH) | 0.341 nM | > 90% | < 1% | 1.3% | 
CCCCCCCCCCCCC(=O)N[C@@H](CCC(=O)NCCOCCOCC(=O)NCCOCCOCC(=O)N[C@@H](CCCN)C(=O)N[C@@H](Cc1ccccc1)C(=O)N[C@@H](CCCCNC(=N)N)C(=O)N[C@@H](CCCCNC(=N)N)C(=O)N[C@@H](CCC(N)=O)C(=O)N(C)[C@@H](CCCNC(=N)N)C(=O)N1CCC[C@H]1C(=O)N(C)[C@@H](CCCNC(=N)N)C(=O)N[C@@H](CC1CCCCC1)C(=O)N[C@@H](CO)C(=O)N[C@@H](Cc1c[nH]cn1)C(=O)N[C@@H](CCCCN)C(=O)NCC(=O)N1[C@H](C(=O)N[C@@H](CCCC)C(=O)N2CCC[C@H]2C(=O)N[C@@H](Cc2ccc(Cl)cc2)C(=O)O)C[C@@H]2CCCC[C@@H]21)C(=O)O [compound 297] ({Tridecanoyl-γGlu-AEEA-AEEA}-[Orn]F[hArg][hArg]Q[NMeR]P[NMeR][Cha]SHKG[Oic][Nle]P[Phe(4-Cl)]-OH) | 1.02 nM | > 90% | 40.3% | < 1% | 
CCCCCCCCCCCCC(=O)N[C@@H](CCC(=O)NCCOCCOCC(=O)NCCOCCOCC(=O)N[C@@H](CCC(N)=O)C(=O)N[C@@H](CCCNC(=N)N)C(=O)N1CCC[C@H]1C(=O)N[C@@H](CCCCNC(=N)N)C(=O)N[C@@H](CC1CCCCC1)C(=O)N[C@@H](CO)C(=O)N[C@@H](Cc1c[nH]cn1)C(=O)N[C@@H](CCCCN)C(=O)NCC(=O)N1[C@H](C(=O)N[C@@H](CCCC)C(=O)N2CCC[C@H]2C(=O)N[C@@H](Cc2ccc(Cl)cc2)C(=O)O)C[C@@H]2CCCC[C@@H]21)C(=O)O [compound 308] ({Tridecanoyl-γGlu-AEEA-AEEA}-QRP[hArg][Cha]SHKG[Oic][Nle]P[Phe(4-Cl)]-OH) |  | 76% | 6.2% | < 1% | 0.18 nM
CCCCCCCCCCCCC(=O)N[C@@H](CCC(=O)NCCOCCOCC(=O)NCCOCCOCC(=O)N[C@@H](CCCCNC(=N)N)C(=O)N[C@@H](CCC(N)=O)C(=O)N[C@@H](CCCCNC(=N)N)C(=O)N1CCC[C@H]1C(=O)N(C)[C@@H](CCCNC(=N)N)C(=O)N[C@@H](CC1CCCCC1)C(=O)N[C@@H](CO)C(=O)N[C@@H](Cc1c[nH]cn1)C(=O)N[C@@H](CCCCN)C(=O)NCC(=O)N1[C@H](C(=O)N[C@@H](CCCC)C(=O)N2CCC[C@H]2C(=O)N[C@@H](Cc2ccc(Cl)cc2)C(=O)O)C[C@@H]2CCCC[C@@H]21)C(=O)O [compound 310] ({Tridecanoyl-γGlu-AEEA-AEEA}-[hArg]Q[hArg]P[NMeR][Cha]SHKG[Oic][Nle]P[Phe(4-Cl)]-OH) | 0.364 nM | > 90% | 15% | 1% | 
CCCCCCCCCCCCC(=O)N[C@@H](CCC(=O)NCCOCCOCC(=O)NCCOCCOCC(=O)N[C@@H](CCC(N)=O)C(=O)N[C@@H](CCCCNC(=N)N)C(=O)N1CCC[C@H]1C(=O)N(C)[C@@H](CCCNC(=N)N)C(=O)N[C@@](C)(CC(C)C)C(=O)N[C@@H](CO)C(=O)N[C@@H](Cc1c[nH]cn1)C(=O)N[C@@H](CCCCN)C(=O)NCC(=O)N1[C@H](C(=O)N[C@@H](CCCC)C(=O)N2CCC[C@H]2C(=O)N[C@@H](Cc2ccc(Cl)cc2)C(=O)O)C[C@@H]2CCCC[C@@H]21)C(=O)O [compound 359] ({Tridecanoyl-γGlu-AEEA-AEEA}-Q[hArg]P[NMeR][αMeL]SHKG[Oic][Nle]P[Phe(4-Cl)]-OH) |  | 62% | 3% | 2% | 0.116 nM
CCCCCCCCCCCCC(=O)N[C@@H](CCC(=O)NCCOCCOCC(=O)NCCOCCOCC(=O)N[C@@H](CCC(N)=O)C(=O)N[C@@H](CCCCNC(=N)N)C(=O)N1CCC[C@H]1C(=O)N(C)[C@@H](CCCNC(=N)N)C(=O)N[C@@H](CC1CCCCC1)C(=O)N[C@@H](CO)C(=O)N[C@@H](Cc1c[nH]cn1)C(=O)N[C@@H](CCCCN)C(=O)NCC(=O)N1[C@H](C(=O)N[C@@H](CCCC)C(=O)N2CCC[C@H]2C(=O)N[C@@H](Cc2ccc(Cl)cc2)C(=O)O)C[C@@H]2CCCC[C@@H]21)C(=O)O [compound 362] ({Tridecanoyl-γGlu-AEEA-AEEA}-Q[hArg]P[NMeR][Cha]SHKG[Oic][Nle]P[Phe(4-Cl)]-OH) |  | 79% | 39% | 2.5% | 3.75 nM
CCCCCCCCCCCCC(=O)N[C@@H](CCC(=O)NCCOCCOCC(=O)NCCOCCOCC(=O)NC(CC(=O)N[C@@H](CCCNC(=N)N)C(=O)N1CCC[C@H]1C(=O)N(C)[C@@H](CCCNC(=N)N)C(=O)NC(CC(=O)N[C@@H](CO)C(=O)N[C@@H](Cc1c[nH]cn1)C(=O)N[C@@H](CCCCN)C(=O)NCC(=O)N1[C@H](C(=O)N[C@@H](CCCC)C(=O)N2CCC[C@H]2C(=O)N[C@@H](Cc2ccc(Cl)cc2)C(=O)O)C[C@@H]2CCCC[C@@H]21)C(C)C)C(C)C)C(=O)O (stereo partly drawn) [compound 394] ({Tridecanoyl-γGlu-AEEA-AEEA}-[ξβ3hV]RP[NMeR][ξβ3hV]SHKG[Oic][Nle]P[Phe(4-Cl)]-OH) | 1.5 nM | 86% | 8% | 2% | 
CCCCCCCCCCCCC(=O)N[C@@H](CCC(=O)NCCOCCOCC(=O)NCCOCCOCC(=O)N[C@H](CCC(N)=O)C(=O)N[C@@H](CCCNC(=N)N)C(=O)N1CCC[C@H]1CC(=O)N(C)[C@@H](CCCNC(=N)N)C(=O)N[C@@](C)(CC(C)C)C(=O)N[C@@H](CO)C(=O)N[C@@H](Cc1c[nH]cn1)C(=O)N[C@@H](CCCCN)C(=O)NCC(=O)N1[C@H](C(=O)N[C@@H](CCCC)C(=O)N2CCC[C@@]2(C)C(=O)N[C@@H](Cc2ccc(Cl)cc2)C(=O)O)C[C@@H]2CCCC[C@@H]21)C(=O)O [compound 553] ({Tridecanoyl-γGlu-AEEA-AEEA}-[dQ]R[β3hP][NMeR][αMeL]SHKG[Oic][Nle][αMeP][Phe(4-Cl)]-OH) |  | > 90% | 29% | 15% | 
CCCCCC(=O)N[C@@H](CCC(=O)NCCOCCOCC(=O)NCCOCCOCC(=O)N[C@@H](CCC(N)=O)C(=O)N[C@@H](CCCNC(=N)N)C(=O)N1CCC[C@H]1C(=O)N(C)[C@@H](CCCNC(=N)N)C(=O)N[C@@H](CC1CCCCC1)C(=O)N[C@@H](CO)C(=O)N[C@@H](Cc1c[nH]cn1)C(=O)N[C@@H](CCCCN)C(=O)NCC(=O)N1[C@H](C(=O)N[C@@H](CCCC)C(=O)NC(C)(C)C(=O)N[C@@H](Cc2ccc(Cl)cc2)C(=O)O)C[C@@H]2CCCC[C@@H]21)C(=O)O [compound 562] ({Hexanoyl-γGlu-AEEA-AEEA}-QRP[NMeR][Cha]SHKG[Oic][Nle][Aib][Phe(4-Cl)]-OH) |  | > 90% | 4% | < 1% | 
CCCCCCCCCCCCCCCC(=O)N[C@@H](CCC(=O)NCCOCCOCC(=O)NCCOCCOCC(=O)N[C@H](CCC(N)=O)C(=O)N[C@@H](CCCNC(=N)N)C(=O)N1CCC[C@H]1C(=O)N(C)[C@@H](CCCNC(=N)N)C(=O)N[C@@H](CC1CCCCC1)C(=O)N[C@@H](CO)C(=O)N[C@@H](Cc1c[nH]cn1)C(=O)N[C@@H](CCCCN)C(=O)NCC(=O)N1[C@H](C(=O)N[C@@H](CCCC)C(=O)N2CCC(C(=O)N[C@@H](Cc3ccc(Cl)cc3)C(=O)O)CC2)C[C@@H]2CCCC[C@@H]21)C(=O)O [compound 587] ({Palmitoyl-γGlu-AEEA-AEEA}-[dQ]RP[NMeR][Cha]SHKG[Oic][Nle][Inp][Phe(4-Cl)]-OH) |  | > 90% | 64% | 34% | 
CCCCCCCCCCCCCCCC(=O)N[C@@H](CCC(=O)NCCOCCOCC(=O)NCCOCCOCC(=O)N[C@H](CCC(N)=O)C(=O)N[C@@H](CCCNC(=N)N)C(=O)N1CCC[C@H]1C(=O)N(C)[C@@H](CCCNC(=N)N)C(=O)N[C@@H](CC1CCCCC1)C(=O)N[C@@H](CO)C(=O)N[C@@H](Cc1c[nH]cn1)C(=O)N[C@@H](CCCCN)C(=O)NCC(=O)N1CCCC[C@H]1C(=O)N[C@@H](CCCC)C(=O)N1CCC[C@H]1C(=O)NC1(C(=O)O)Cc2ccccc2C1)C(=O)O [compound 590] ({Palmitoyl-γGlu-AEEA-AEEA}-[dQ]RP[NMeR][Cha]SHKG[Pip][Nle]P[Aic]-OH) |  | 86% | 11% | 4% | 

From patent US11807693B2 (priority 2014, dated 2023)
